Test results published in patent US9993001B2, “Herbicidal composition” (ISHIHARA SANGYO KAISHA, LTD., priority 2014, dated 2018).

Experiments:
Assay type in all cases: in vivo
[1] = system: large crabgrass (Diqitaria sanquinalis L.); assay: Test Example 11: corn field, foliar treatment, metobromuron + nicosulfuron; details: Digitaria sanguinalis; 30 g/ha; foliar treatment at 1.5 to 2.0 leaf stage, corn field; 30th day after treatment; read-out: Growth inhibition rate of large crabgrass (%) Measured value
Source text: (§1) When the herbicidal activity in a case where two active ingredients are combined, is larger than the simple sum of the respective herbicidal activities of the two active ingredients (the expected activity), it is called a synergistic effect. The activity expected by the combination of two active ingredients can be calculated as follows (Colby S. R., “Weed”, vol. 15, p. 20-22, 1967). E=α+β−(α×β[…]) where α: growth inhibition rate when treated with x (g/ha) of herbicide X, • β: growth inhibition rate when treated with y (g/ha) of herbicide Y, • E: growth inhibition rate expected when treated with x (g/ha) of herbicide X and y (g/ha) of herbicide Y.
(§2) On the 19th day after treatment, the state of growth of barnyardgrass was visually observed and evaluated in accordance with the following standards. The growth inhibition rate (%) [measured value] and the growth inhibition rate (%) [calculated value] calculated by the Colby's method, are shown in Table 2.
(§3) Growth inhibition rate (%)=inhibition rate) (%) of 0 (equivalent to the non-treated area) to 100 (complete kill) […]
On the 30th day after treatment, the state of growth of large crabgrass was visually observed and evaluated in the same manner as in Test Example 1.

[2] = system: common purslane (Portulaca oleracea L.); assay: Test Example 12: corn field, soil treatment, metobromuron + nicosulfuron; details: 30 g/ha, soil treatment, corn field, 30th day after treatment, read-out: Growth inhibition rate of common purslane (%) Measured value
Source text: as §1, §2, §3
On the 30th day after treatment, the state of growth of common purslane (Portulaca oleracea L.) which occurred naturally, was visually observed and evaluated in the same manner as in Test Example 1.

polygonaceae weeds = assay: Test Example 10: corn field, soil treatment, metobromuron + pendimethalin; details: 600 g/ha; soil treatment, corn field; 49th day after treatment; read-out: Growth inhibition rate of Polygonaceae weeds (%) Measured value
Source text: as §1, §2, §3
On the 49th day after treatment, the state of growth of polygonaceae weeds which occurred naturally, was visually observed and evaluated in the same manner as in Test Example 1, The results are shown in Table 11.

[3] = system: large crabgrass (Digitaria sanquinalis L.); assay: Test Example 28: pot, soil treatment, metobromuron + pendimethalin; details: 62.5 g/ha, soil treatment, pot, 27th day after treatment, read-out: Growth inhibition rate of large crabgrass (%) Measured value
Source text: as §1, §2
(§4) Growth inhibition rate (%)=inhibition rate) (%) of 0 (equivalent to the non-treated area) to 100 (complete kill)
Soil was put into a 1/300,000 ha pot, and seeds of large crabgrass (Digitaria sanquinalis L.) were sown. On the day after seeding, predetermined amounts of SC containing metobromuron as active ingredient (same as in Test Example 1) and EC containing pendimethalin as active ingredient (same as in Test Example 10) were diluted with water corresponding to 1,000 L per hectare and applied for soil treatment.
On the 27th day after treatment, the state of growth of large crabgrass was visually observed and evaluated in the same manner as in Test Example 1.

[4] = system: spotted knotweed (Polygonum lapathifolium L.); assay: Test Example 2: soybean field, soil treatment, metobromuron + S-metolachlor; details: Persicaria lapathifolia; 1000 g/ha; soil treatment, soybean field; 50th day after treatment; read-out: Growth inhibition rate of spotted knotweed (%) Measured value
Source text: as §1, §2, §3
On the 50th day after treatment, the state of growth of spotted knotweed was visually observed and evaluated in the same manner as in Test Example 1.

[5] = system: Nepalese Smartweed (Persicaria nepalensis (Meisn.) H. Gross); assay: Test Example 3: soybean field, soil treatment, metobromuron + S-metolachlor; details: 1000 g/ha, soil treatment, soybean field, 50th day after treatment, read-out: Growth inhibition rate of Nepalese Smartweed (%) Measured value
Source text: as §1, §2, §3
On the 50th day after treatment, the state of growth of Nepalese Smartweed (Persicaria nepalensis (Meisn.) H. Gross) which occurred naturally, was visually observed and evaluated in the same manner as in Test Example 1.

[6] = system: Nepalese Smartweed (Persicaria nepalensis (Meisn.) H. Gross); assay: Test Example 6: adzuki bean field, soil treatment, metobromuron + S-metolachlor; details: 1000 g/ha, soil treatment, adzuki bean field, 39th day after treatment, read-out: Growth inhibition rate of Nepalese Smartweed (%) Measured value
Source text: as §1, §2, §4
In an adzuki bean agricultural field (9.6 square meters per one test section), predetermined amounts of SC containing metobromuron as active ingredient (same as in Test Example 1) and EC containing S-metolachlor as active ingredient (same as in Test Example 2) were diluted with water corresponding to 1,000 L per hectare and applied for soil treatment, prior to germination of adzuki bean and weeds.
On the 39th day after treatment, the state of growth of Nepalese Smartweed (Persicaria nepalensis (Meisn.) H. Gross) which occurred naturally, was visually observed and evaluated in the same manner as in Test Example 1.

[7] = system: common lambsquarters (Chenopodium album L.); assay: Test Example 8: corn field, soil treatment, metobromuron + S-metolachlor; details: 1000 g/ha, soil treatment, corn field, 28th day after treatment, read-out: Growth inhibition rate of common lambsquarters (%) Measured value
Source text: as §1, §2, §3
On the 28th day after treatment, the state of growth of common lambsquarters (Chenopodium album L.) which occurred naturally, was visually observed and evaluated in the same manner as in Test Example 1.

[8] = system: redroot pigweed (Amaranthus retroflexus L.); assay: Test Example 9: corn field, soil treatment, metobromuron + S-metolachlor; details: 1000 g/ha, soil treatment, corn field, 49th day after treatment, read-out: Growth inhibition rate of redroot pigweed (%) Measured value
Source text: as §1, §2, §3
On the 49th day after treatment, the state of growth of redroot pigweed (Amaranthus retroflexus L.) which occurred naturally, was visually observed and evaluated in the same manner as in Test Example 1.

COc1cc(OC)nc(NC(=O)NS(=O)(=O)c2ncccc2C(=O)N(C)C)n1 [Nicosulfuron, 2-[(4,6-dimethoxypyrimidin-2-ylcarbamoyl)sulfamoyl]-N,N-dimethyl nicotinamide]
inhibition at 30 g/ha [1]: 10% | inhibition at 30 g/ha [2]: 55%

CCC(CC)Nc1c([N+](=O)[O-])cc(C)c(C)c1[N+](=O)[O-] [Pendimethalin, N-(1-ethylpropyl)-2,6-dinitro-3,4-xylidine]
inhibition at 600 g/ha (polygonaceae weeds): 73% | inhibition at 62.5 g/ha [3]: 70%

CCc1cccc(C)c1N(C(=O)CCl)[C@@H](C)COC [S-Metolachlor, 2-chloro-N-(6-ethyl-o-tolyl)-N-[(1S)-2-methoxy-1-methylethyl]acetamide]
inhibition at 1000 g/ha [4]: 59% | inhibition at 1000 g/ha [5]: 10% | inhibition at 1000 g/ha [6]: 75% | inhibition at 1000 g/ha [7]: 69% | inhibition at 1000 g/ha [8]: 45%
